In the kinase profiling compilation of Christmann-Franck et al. (2016):

How the values were obtained:
Assay in all cases: radiometric filter-binding kinase assay, Kinase HotSpot
Settings in all cases: compound 0.5 µM; ATP 10 µM
TXK (human) = TXK (human) (UniProt P42681)
MKNK2 (human) = MKNK2 (human) (UniProt Q9HBH9)
EPHB4 (human) = EPHB4 (human) (UniProt P54760)
MAPK14 (human) = MAPK14 (human) (UniProt Q16539)
AURKA (human) = AURKA (human) (UniProt O14965)
RET (human) = RET (human) (UniProt P07949)
CDK2 CCNE1 (human) = CDK2 CCNE1 (human) (UniProt P24941+P24864)
CHEK1 (human) = CHEK1 (human) (UniProt O14757)
FRK (human) = FRK (human) (UniProt P42685)
ERBB2 (human) = ERBB2 (human) (UniProt P04626)
DYRK1A (human) = DYRK1A (human) (UniProt Q13627)
NEK2 (human) = NEK2 (human) (UniProt P51955)
PAK2 (human) = PAK2 (human) (UniProt Q13177)
JAK2 JH1 JH2 (human) = JAK2 JH1 JH2 (human) (UniProt O60674)
EGFR (human) = EGFR (human) (UniProt P00533)
EPHA4 (human) = EPHA4 (human) (UniProt P54764)
Chain of EPHA4 (human) (P54764 whole entry, looked up): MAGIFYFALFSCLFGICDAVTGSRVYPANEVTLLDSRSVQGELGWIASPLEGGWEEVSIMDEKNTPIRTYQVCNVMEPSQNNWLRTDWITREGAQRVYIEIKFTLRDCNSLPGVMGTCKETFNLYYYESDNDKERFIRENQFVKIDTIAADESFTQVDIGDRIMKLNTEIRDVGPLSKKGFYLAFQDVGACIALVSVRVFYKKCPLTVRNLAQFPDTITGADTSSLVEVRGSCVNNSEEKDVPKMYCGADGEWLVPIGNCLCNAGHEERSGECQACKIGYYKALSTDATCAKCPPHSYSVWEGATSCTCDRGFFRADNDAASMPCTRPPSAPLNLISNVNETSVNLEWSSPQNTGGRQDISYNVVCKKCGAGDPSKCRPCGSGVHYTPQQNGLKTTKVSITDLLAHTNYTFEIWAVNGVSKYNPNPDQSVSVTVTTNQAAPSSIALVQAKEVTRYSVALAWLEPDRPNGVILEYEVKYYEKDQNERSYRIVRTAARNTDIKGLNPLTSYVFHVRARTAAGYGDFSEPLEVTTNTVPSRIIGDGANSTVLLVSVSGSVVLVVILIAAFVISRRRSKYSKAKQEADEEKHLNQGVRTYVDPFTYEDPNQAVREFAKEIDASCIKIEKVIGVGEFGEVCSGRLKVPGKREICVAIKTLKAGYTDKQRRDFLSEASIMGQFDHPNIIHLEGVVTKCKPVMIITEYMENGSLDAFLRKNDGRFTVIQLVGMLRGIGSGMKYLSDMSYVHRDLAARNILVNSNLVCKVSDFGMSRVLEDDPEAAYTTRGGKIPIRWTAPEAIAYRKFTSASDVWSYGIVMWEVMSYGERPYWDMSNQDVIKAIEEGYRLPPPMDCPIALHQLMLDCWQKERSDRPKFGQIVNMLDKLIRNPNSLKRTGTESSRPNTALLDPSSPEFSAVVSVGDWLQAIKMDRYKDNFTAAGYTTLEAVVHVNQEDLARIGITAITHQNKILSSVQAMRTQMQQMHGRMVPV

PLK1 (human) = PLK1 (human) (UniProt P53350)
LIMK1 (human) = LIMK1 (human) (UniProt P53667)
Chain of LIMK1 (human) (P53667 whole entry, looked up): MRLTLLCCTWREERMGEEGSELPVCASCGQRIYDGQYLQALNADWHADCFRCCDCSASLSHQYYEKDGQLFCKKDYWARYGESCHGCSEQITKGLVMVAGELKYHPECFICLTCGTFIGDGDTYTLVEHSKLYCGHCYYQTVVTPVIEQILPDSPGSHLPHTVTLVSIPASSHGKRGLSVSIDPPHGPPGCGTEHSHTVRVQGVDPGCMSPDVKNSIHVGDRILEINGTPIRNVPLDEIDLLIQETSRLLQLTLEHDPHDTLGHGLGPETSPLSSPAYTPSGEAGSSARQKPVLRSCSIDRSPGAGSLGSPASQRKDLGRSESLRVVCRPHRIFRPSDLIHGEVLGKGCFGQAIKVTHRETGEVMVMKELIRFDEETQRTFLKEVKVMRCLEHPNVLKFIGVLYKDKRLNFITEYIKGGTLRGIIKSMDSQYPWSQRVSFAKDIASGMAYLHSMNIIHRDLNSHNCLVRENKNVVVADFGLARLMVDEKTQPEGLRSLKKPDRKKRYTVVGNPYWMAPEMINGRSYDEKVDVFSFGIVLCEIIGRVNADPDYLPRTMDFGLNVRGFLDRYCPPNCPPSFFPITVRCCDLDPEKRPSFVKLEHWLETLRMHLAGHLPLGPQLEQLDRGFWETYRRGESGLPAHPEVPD

CLK1 (human) = CLK1 (human) (UniProt P49759)
Chain of CLK1 (human) (P49759 whole entry, looked up): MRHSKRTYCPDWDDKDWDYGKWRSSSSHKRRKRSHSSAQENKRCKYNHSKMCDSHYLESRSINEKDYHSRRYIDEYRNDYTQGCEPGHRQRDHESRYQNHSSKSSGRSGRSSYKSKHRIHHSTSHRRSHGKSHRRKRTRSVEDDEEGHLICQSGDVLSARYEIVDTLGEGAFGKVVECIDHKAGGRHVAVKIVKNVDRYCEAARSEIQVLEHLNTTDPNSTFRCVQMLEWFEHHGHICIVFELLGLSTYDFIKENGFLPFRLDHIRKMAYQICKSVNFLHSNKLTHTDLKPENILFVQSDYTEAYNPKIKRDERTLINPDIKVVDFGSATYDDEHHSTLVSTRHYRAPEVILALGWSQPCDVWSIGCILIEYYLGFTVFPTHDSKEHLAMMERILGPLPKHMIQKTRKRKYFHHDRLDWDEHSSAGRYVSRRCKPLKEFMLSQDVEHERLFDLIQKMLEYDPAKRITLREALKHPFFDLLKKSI

TTK (human) = TTK (human) (UniProt P33981)
SRPK1 (human) = SRPK1 (human) (UniProt Q96SB4)
AURKC (human) = AURKC (human) (UniProt Q9UQB9)
MAPKAPK2 (human) = MAPKAPK2 (human) (UniProt P49137)
KIT (human) = KIT (human) (UniProt P10721)
FGFR2 (human) = FGFR2 (human) (UniProt P21802)
MAP4K2 (human) = MAP4K2 (human) (UniProt Q12851)
EPHA5 (human) = EPHA5 (human) (UniProt P54756)
ACVR1B (human) = ACVR1B (human) (UniProt P36896)
PDGFRB (human) = PDGFRB (human) (UniProt P09619)
CSNK2A1 (human) = CSNK2A1 (human) (UniProt P68400)
MAP3K14 (human) = MAP3K14 (human) (UniProt Q99558)
ROCK1 (human) = ROCK1 (human) (UniProt Q13464)
Chain of ROCK1 (human) (Q13464 whole entry, looked up): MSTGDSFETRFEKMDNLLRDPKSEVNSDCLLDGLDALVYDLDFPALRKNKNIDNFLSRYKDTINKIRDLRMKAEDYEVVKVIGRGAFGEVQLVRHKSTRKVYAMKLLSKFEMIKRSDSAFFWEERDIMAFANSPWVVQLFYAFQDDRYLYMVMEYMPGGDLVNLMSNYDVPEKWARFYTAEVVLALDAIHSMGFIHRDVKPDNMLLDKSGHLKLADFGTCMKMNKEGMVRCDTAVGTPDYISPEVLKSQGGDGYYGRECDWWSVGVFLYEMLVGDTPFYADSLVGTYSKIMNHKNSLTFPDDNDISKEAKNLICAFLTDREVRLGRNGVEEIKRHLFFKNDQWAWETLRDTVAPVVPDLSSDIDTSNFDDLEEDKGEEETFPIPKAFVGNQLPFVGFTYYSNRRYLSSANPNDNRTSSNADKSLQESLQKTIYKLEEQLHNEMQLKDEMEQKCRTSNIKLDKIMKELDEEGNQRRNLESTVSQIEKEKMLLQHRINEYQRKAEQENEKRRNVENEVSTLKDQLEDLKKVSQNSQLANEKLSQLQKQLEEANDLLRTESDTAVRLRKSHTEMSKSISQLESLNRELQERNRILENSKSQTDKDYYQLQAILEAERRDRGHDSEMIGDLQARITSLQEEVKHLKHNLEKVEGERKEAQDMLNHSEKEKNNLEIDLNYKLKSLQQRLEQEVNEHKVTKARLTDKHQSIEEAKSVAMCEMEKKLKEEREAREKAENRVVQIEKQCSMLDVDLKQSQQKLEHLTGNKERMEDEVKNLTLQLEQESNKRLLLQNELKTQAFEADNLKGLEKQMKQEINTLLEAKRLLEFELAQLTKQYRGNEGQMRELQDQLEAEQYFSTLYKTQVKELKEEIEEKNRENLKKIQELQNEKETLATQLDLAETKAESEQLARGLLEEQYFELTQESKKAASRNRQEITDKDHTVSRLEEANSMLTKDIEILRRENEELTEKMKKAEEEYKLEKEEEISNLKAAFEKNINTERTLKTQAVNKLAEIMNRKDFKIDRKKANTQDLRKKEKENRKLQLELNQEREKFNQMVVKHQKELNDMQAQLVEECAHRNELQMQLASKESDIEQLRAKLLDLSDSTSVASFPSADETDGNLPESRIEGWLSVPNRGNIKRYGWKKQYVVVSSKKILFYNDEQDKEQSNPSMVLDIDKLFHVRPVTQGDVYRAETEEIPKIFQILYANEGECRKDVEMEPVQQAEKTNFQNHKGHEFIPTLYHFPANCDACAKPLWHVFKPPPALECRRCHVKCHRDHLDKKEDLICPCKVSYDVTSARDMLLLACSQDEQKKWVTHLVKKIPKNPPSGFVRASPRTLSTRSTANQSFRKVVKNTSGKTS

AXL (human) = AXL (human) (UniProt P30530)
DAPK2 (human) = DAPK2 (human) (UniProt Q9UIK4)
OXSR1 (human) = OXSR1 (human) (UniProt O95747)
ABL1 (human) = ABL1 (human) (UniProt P00519)
CAMK2B (human) = CAMK2B (human) (UniProt Q13554)
CAMKK2 (human) = CAMKK2 (human) (UniProt Q96RR4)
Chain of CAMKK2 (human) (Q96RR4 whole entry, looked up): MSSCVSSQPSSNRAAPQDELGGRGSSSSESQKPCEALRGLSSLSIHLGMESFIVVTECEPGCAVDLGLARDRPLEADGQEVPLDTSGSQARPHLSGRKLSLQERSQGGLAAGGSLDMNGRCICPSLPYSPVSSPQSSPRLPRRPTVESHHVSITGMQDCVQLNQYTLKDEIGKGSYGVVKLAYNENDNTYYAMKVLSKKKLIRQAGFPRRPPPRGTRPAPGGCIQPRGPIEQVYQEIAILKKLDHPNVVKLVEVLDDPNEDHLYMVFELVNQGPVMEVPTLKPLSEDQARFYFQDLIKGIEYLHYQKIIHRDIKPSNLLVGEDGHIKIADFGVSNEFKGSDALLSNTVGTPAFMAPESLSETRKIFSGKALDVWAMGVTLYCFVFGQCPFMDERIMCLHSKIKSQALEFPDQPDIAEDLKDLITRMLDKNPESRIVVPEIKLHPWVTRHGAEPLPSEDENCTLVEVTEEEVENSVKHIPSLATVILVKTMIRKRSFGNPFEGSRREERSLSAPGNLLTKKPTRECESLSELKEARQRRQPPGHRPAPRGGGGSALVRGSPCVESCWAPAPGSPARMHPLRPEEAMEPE

PASK (human) = PASK (human) (UniProt Q96RG2)
LCK (human) = LCK (human) (UniProt P06239)
[1] = molecular target: JAK1 JH1 catalytic (human) (UniProt P23458)
CAMK2D (human) = CAMK2D (human) (UniProt Q13557)

Chain of MAPK14 (human) (Q16539 whole entry, looked up): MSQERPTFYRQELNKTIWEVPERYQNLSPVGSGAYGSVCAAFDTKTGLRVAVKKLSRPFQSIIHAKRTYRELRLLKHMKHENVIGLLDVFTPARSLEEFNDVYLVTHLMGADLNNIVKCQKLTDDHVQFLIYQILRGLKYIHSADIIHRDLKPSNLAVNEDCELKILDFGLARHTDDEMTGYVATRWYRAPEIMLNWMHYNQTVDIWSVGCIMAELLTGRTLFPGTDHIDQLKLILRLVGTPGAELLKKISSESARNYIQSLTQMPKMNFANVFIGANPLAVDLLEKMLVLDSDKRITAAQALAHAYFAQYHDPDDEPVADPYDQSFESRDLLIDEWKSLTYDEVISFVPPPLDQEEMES
Chain of AURKA (human) (O14965 whole entry, looked up): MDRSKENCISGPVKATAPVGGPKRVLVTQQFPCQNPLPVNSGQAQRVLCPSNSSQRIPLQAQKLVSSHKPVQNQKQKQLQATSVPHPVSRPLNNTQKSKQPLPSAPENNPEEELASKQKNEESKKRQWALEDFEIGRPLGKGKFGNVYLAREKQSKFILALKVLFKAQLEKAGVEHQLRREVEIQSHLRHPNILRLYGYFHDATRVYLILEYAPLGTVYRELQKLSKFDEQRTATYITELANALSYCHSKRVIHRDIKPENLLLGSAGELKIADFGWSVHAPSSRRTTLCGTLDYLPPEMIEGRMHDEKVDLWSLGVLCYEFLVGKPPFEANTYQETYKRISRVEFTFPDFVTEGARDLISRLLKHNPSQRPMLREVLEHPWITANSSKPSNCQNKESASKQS

Q: Which residual activity (TXK (human)) does the source give for `O=C(c1cc2cc(O)ccc2[nH]1)c1cc2cc(O)ccc2[nH]1` here?
A: Its residual activity is 74.9%.

Q: What about the residual activity (MKNK2 (human)) of the same molecule?
A: Its residual activity is 46.8%.

Q: And the residual activity (EPHB4 (human))?
A: The residual activity was 89.3%.

Q: What about the residual activity (MAPK14 (human)) of the same molecule?
A: The residual activity was 103%.

Q: What about the residual activity (AURKA (human)) of the same molecule?
A: Its residual activity is 71.6%.

Q: And the residual activity (RET (human))?
A: The residual activity was 8.98%.

Q: What about the residual activity (CDK2 CCNE1 (human)) of the same molecule?
A: The residual activity was 65%.

Q: What about the residual activity (CHEK1 (human)) of the same molecule?
A: Its residual activity is 82.5%.

Q: And the residual activity (FRK (human))?
A: The residual activity was 86.1%.

Q: And the residual activity (ERBB2 (human))?
A: Its residual activity is 113%.

Q: What about the residual activity (DYRK1A (human)) of the same molecule?
A: The residual activity was 103%.

Q: What about the residual activity (NEK2 (human)) of the same molecule?
A: Its residual activity is 101%.

Q: And the residual activity (PAK2 (human))?
A: The residual activity was 97%.

Q: And the residual activity (JAK2 JH1 JH2 (human))?
A: The residual activity was 95.6%.

Q: And the residual activity (EGFR (human))?
A: The residual activity was 97.6%.

Q: And the residual activity (EPHA4 (human))?
A: The residual activity was 109%.

Q: And the residual activity (PLK1 (human))?
A: Its residual activity is 101%.

Q: And the residual activity (LIMK1 (human))?
A: Its residual activity is 87.9%.

Q: What about the residual activity (CLK1 (human)) of the same molecule?
A: The residual activity was 82.1%.

Q: And the residual activity (TTK (human))?
A: Its residual activity is 92.9%.

Q: What about the residual activity (SRPK1 (human)) of the same molecule?
A: The residual activity was 92.2%.

Q: And the residual activity (AURKC (human))?
A: The residual activity was 83.2%.

Q: And the residual activity (MAPKAPK2 (human))?
A: The residual activity was 103%.

Q: And the residual activity (KIT (human))?
A: Its residual activity is 45.6%.

Q: And the residual activity (FGFR2 (human))?
A: The residual activity was 98.5%.

Q: And the residual activity (MAP4K2 (human))?
A: Its residual activity is 67.1%.

Q: What about the residual activity (EPHA5 (human)) of the same molecule?
A: Its residual activity is 100%.

Q: And the residual activity (ACVR1B (human))?
A: Its residual activity is 98.9%.

Q: What about the residual activity (PDGFRB (human)) of the same molecule?
A: The residual activity was 41.7%.

Q: And the residual activity (CSNK2A1 (human))?
A: Its residual activity is 88.7%.

Q: What about the residual activity (MAP3K14 (human)) of the same molecule?
A: Its residual activity is 77.1%.

Q: What about the residual activity (ROCK1 (human)) of the same molecule?
A: The residual activity was 96.2%.

Q: What about the residual activity (AXL (human)) of the same molecule?
A: Its residual activity is 90.1%.

Q: And the residual activity (DAPK2 (human))?
A: The residual activity was 101%.

Q: And the residual activity (OXSR1 (human))?
A: Its residual activity is 105%.

Q: And the residual activity (ABL1 (human))?
A: The residual activity was 27.8%.

Q: What about the residual activity (CAMK2B (human)) of the same molecule?
A: The residual activity was 93.4%.

Q: What about the residual activity (CAMKK2 (human)) of the same molecule?
A: Its residual activity is 84.2%.

Q: What about the residual activity (PASK (human)) of the same molecule?
A: Its residual activity is 78.7%.

Q: And the residual activity (LCK (human))?
A: The residual activity was 52%.

Q: And the residual activity [1]?
A: Its residual activity is 98.7%.

Q: And the residual activity (CAMK2D (human))?
A: The residual activity was 63.7%.

Q: Which residual activity (TXK (human)) does the source give for `COc1ccc(C(=O)Nc2sc3c(c2C(N)=O)CCCC3)cc1OC` here?
A: Its residual activity is 96.2%.

Q: What about the residual activity (MKNK2 (human)) of the same molecule?
A: The residual activity was 78.7%.

Q: What about the residual activity (EPHB4 (human)) of the same molecule?
A: The residual activity was 93.9%.

Q: And the residual activity (MAPK14 (human))?
A: The residual activity was 97.5%.

Q: What about the residual activity (AURKA (human)) of the same molecule?
A: Its residual activity is 97.9%.

Q: And the residual activity (RET (human))?
A: The residual activity was 102%.

Q: And the residual activity (CDK2 CCNE1 (human))?
A: The residual activity was 94.6%.

Q: What about the residual activity (CHEK1 (human)) of the same molecule?
A: Its residual activity is 112%.

Q: And the residual activity (FRK (human))?
A: Its residual activity is 88.8%.

Q: What about the residual activity (ERBB2 (human)) of the same molecule?
A: The residual activity was 93.3%.

Q: And the residual activity (DYRK1A (human))?
A: The residual activity was 97.4%.

Q: What about the residual activity (NEK2 (human)) of the same molecule?
A: Its residual activity is 95.4%.

Q: What about the residual activity (PAK2 (human)) of the same molecule?
A: The residual activity was 99.1%.

Q: What about the residual activity (JAK2 JH1 JH2 (human)) of the same molecule?
A: The residual activity was 99.9%.

Q: What about the residual activity (EGFR (human)) of the same molecule?
A: Its residual activity is 99.9%.

Q: And the residual activity (EPHA4 (human))?
A: Its residual activity is 104%.

Q: And the residual activity (PLK1 (human))?
A: The residual activity was 99%.

Q: What about the residual activity (LIMK1 (human)) of the same molecule?
A: The residual activity was 93.2%.

Q: What about the residual activity (CLK1 (human)) of the same molecule?
A: Its residual activity is 96.9%.

Q: And the residual activity (TTK (human))?
A: The residual activity was 95.6%.

Q: And the residual activity (SRPK1 (human))?
A: Its residual activity is 82.6%.

Q: What about the residual activity (AURKC (human)) of the same molecule?
A: The residual activity was 97.2%.

Q: What about the residual activity (MAPKAPK2 (human)) of the same molecule?
A: Its residual activity is 104%.

Q: What about the residual activity (KIT (human)) of the same molecule?
A: The residual activity was 46.2%.

Q: What about the residual activity (FGFR2 (human)) of the same molecule?
A: The residual activity was 100%.

Q: And the residual activity (MAP4K2 (human))?
A: Its residual activity is 106%.

Q: What about the residual activity (EPHA5 (human)) of the same molecule?
A: Its residual activity is 104%.

Q: And the residual activity (ACVR1B (human))?
A: The residual activity was 101%.

Q: And the residual activity (PDGFRB (human))?
A: The residual activity was 90.9%.

Q: What about the residual activity (CSNK2A1 (human)) of the same molecule?
A: Its residual activity is 98.8%.

Q: And the residual activity (MAP3K14 (human))?
A: The residual activity was 88%.

Q: What about the residual activity (ROCK1 (human)) of the same molecule?
A: The residual activity was 107%.

Q: What about the residual activity (AXL (human)) of the same molecule?
A: The residual activity was 84.4%.

Q: What about the residual activity (DAPK2 (human)) of the same molecule?
A: Its residual activity is 106%.

Q: And the residual activity (OXSR1 (human))?
A: Its residual activity is 99.9%.

Q: What about the residual activity (ABL1 (human)) of the same molecule?
A: The residual activity was 101%.

Q: What about the residual activity (CAMK2B (human)) of the same molecule?
A: The residual activity was 99.9%.

Q: And the residual activity (CAMKK2 (human))?
A: Its residual activity is 96.9%.

Q: What about the residual activity (PASK (human)) of the same molecule?
A: Its residual activity is 101%.

Q: What about the residual activity (LCK (human)) of the same molecule?
A: The residual activity was 93.8%.

Q: What about the residual activity [1] of the same molecule?
A: The residual activity was 104%.

Q: And the residual activity (CAMK2D (human))?
A: The residual activity was 104%.
